Assay results as given in US20240407413A1, “Concentrates Compromising Stevia Blends and Uses” (The Coca-Cola Company, priority 2018, published 2024).

Legend:
[1] = Appearance of 0.3 wt % syrup concentrates diluted from super concentrates; format: physicochemical; conditions: 0.3 wt % (5.5+1 syrup concentration) in water, mixed at room temperature for 90 hours
Experimental: The final syrup concentrations are provided below:
The 2 wt % super concentrates were then diluted to a 5.5+1 syrup concentration (0.3 wt %) with water and mixed at room temperature for 90 hours.

[2] = Solubility in mock syrup system (0.3%); format: physicochemical

Observations [1] | Solubility in Syrup System (0.3%) ([2]; 500 ppm in citric buffer) | Solubility in Syrup System (0.3%) ([2]; 512 ppm in citric buffer) | SMILES
cloudy |  |  | C=C1C[C@@]23CC[C@H]4[C@@](C)(CCC[C@@]4(C)C(=O)O[C@@H]4O[C@H](CO)[C@@H](O)[C@H](O[C@@H]5O[C@H](CO)[C@@H](O)[C@H](O)[C@H]5O)[C@H]4O[C@@H]4O[C@@H](C)[C@H](O)[C@@H](O)[C@H]4O)[C@@H]2CC[C@]1(O[C@@H]1O[C@H](CO)[C@@H](O)[C@H](O[C@@H]2O[C@H](CO)[C@@H](O)[C@H](O)[C@H]2O)[C@H]1O[C@@H]1O[C@H](CO)[C@@H](O)[C@H](O)[C@H]1O)C3 [Reb N]
 | No | No | C=C1C[C@@]23CCC4[C@](C)(C(=O)OC5OC(CO)C(O)C(OC6OC(CO)C(O)C(O)C6O)C5OC5OC(CO)C(O)C(O)C5O)CCC[C@@]4(C)[C@@H]2CCC1(OC1OC(CO)C(O)C(OC2OC(CO)C(O)C(O)C2O)C1OC1OC(CO)C(O)C(O)C1O)C3 (stereo partly drawn) [Reb-M, 13-[(2-O-β-D-glucopyranosyl-3-O-β-D-glucopyranosyl-β-D-glucopyranosyl)oxy] ent kaur-16-en-19-oic acid-[(2-O-β-D-glucopyranosyl-3-O-β-D-glucopyranosyl-β-D-glucopyranosyl) ester]]
